{"source": "paper PMC7594079", "about": "“Insights into the Function and Evolution of Taste 1 Receptor Gene Family in the Carnivore Fish Gilthead Seabream (Sparus aurata)” (International Journal of Molecular Sciences, 2020)"}
{"molecular_target": "T1, saT1R2a/R3 (Sparus aurata, UniProt A0A671TK95+A0A671VZB3)", "T1 sequence (A0A671TK95 20-825)": "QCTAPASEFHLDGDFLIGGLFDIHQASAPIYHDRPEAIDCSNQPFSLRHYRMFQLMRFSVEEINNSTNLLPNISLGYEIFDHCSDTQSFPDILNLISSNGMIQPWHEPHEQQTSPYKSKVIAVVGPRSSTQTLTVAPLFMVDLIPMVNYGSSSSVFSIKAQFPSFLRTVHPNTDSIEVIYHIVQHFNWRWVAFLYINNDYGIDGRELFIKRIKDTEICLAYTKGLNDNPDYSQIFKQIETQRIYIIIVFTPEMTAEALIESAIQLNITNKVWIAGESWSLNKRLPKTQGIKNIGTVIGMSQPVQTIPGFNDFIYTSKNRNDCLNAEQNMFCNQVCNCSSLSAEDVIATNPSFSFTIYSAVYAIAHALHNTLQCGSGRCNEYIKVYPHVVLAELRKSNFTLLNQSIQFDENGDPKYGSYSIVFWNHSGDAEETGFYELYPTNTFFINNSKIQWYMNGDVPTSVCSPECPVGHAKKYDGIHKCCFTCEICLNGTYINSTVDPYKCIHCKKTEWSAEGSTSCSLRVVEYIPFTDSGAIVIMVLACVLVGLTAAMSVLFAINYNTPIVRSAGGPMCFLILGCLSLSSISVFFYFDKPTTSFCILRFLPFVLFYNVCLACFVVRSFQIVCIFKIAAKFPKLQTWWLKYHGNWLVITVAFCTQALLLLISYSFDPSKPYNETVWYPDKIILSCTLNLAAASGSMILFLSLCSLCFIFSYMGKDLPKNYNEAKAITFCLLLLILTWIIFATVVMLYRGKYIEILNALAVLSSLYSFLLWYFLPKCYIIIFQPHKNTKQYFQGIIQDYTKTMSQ", "T1 sequence (A0A671VZB3 24-860)": "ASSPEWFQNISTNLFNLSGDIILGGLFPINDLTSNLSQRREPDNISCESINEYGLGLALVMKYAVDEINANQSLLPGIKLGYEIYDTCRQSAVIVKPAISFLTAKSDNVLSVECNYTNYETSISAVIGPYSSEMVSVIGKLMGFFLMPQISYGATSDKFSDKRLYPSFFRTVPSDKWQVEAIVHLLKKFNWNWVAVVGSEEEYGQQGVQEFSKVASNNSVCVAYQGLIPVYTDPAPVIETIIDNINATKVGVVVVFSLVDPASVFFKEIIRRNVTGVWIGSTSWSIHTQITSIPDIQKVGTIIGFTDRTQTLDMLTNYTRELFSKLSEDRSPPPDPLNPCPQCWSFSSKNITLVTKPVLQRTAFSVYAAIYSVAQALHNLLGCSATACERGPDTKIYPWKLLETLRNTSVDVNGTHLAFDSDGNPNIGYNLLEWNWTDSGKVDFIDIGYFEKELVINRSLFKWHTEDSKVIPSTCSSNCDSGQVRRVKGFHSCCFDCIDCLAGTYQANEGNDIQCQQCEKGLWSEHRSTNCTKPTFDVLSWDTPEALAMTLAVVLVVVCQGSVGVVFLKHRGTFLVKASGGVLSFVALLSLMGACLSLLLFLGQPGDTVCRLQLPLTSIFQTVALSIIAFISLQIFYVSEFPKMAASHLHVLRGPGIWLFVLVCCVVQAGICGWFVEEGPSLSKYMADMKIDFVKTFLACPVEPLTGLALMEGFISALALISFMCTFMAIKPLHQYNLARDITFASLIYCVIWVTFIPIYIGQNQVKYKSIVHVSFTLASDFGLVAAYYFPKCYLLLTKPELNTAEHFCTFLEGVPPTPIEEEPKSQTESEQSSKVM", "experiment": "saT1R2a/R3 heterodimer transiently transfected in stable pGL3-NFAT-luc-HEK293 (Cl.3) cells, luciferase reporter", "format": "cell-based", "details": "as molarity; decimal comma", "excerpt": "(§1) Figure 6 Amino acid Log-dose response curves of activation in heterologous co-transfected (Cl.3) cells with saT1R1/3 (green dots), saT1R2a/3 (red squares) and saT1R2b/3 (black triangles) heterodimers. Evaluation of L-AA responses was based on the RLU mean ± SEM of four independent determinations normalized to the mean response of the same transfections stimulated with reduced assay medium (Basal Medium Eagle w/o L-glutamate (BME) + 1% FBS), and expressed as the percentage relative to basal levels (BL).\n(§2) HEK293 cells were cultured in standard medium DMEM (Gibco, Thermo Fisher, Saint Louis, MO, USA) containing 10% FBS, penicillin (100 U/mL) and streptomycin ([…]) at 37 °C, with a humidified atmosphere at 5% CO2. pGL3-NFAT-luc-HEK293 stable clones were generated by co-transfections of pGL3-NFAT-luc and tgCMV/HyTK plasmids (50:1), the latter harboring the hygromycin phosphotransferase gene, using Lipofectamine LTX according to supplier’s protocols (Thermo Fisher, Saint Louis, MO, USA). Initially, HEK293 cells were selected using DMEM containing 400 μg/mL hygromycin B (Sigma, Darmstadt, Germany) in 24-well plates for two weeks; 24 colonies were further grown out in 96-well plates under reduced hygromycin selection (200 µg/mL) for three weeks. Potentially resistant NFAT-luc-HEK293 clones (n = 22) were validated after incubation in assay medium (DMEM + 1% FBS) containing PMA or Ionomycin (Sigma, Darmstadt, Germany) for 18 h (triplicates, 50,000 cells/well). Luciferase activity was quantified with ONE-Glo™ EX Reagent Kit (Promega, Madison, WI, USA) using a 96-microplate TECAN reader (Trading AG, Switzerland).\n(§3) saT1Rs (saT1R1, saT1R2a, saT1R2b saT1R3) and saGαi1-2 genes were RT-PCR amplified using 5’ and 3’ flanking primers carrying HindIII and XhoI restriction sites, respectively. Gel-purified fragments were cloned into pGEM-T Easy vectors, re-sequenced, digested and subcloned into pcDNA™3 (Invitrogen, Carlsbad, CA, USA). Effective saT1R cloning into pcDNA™3 was further verified by HindIII/XhoI digestion. Transient co-transfections were done in 6-well plates (confluence ~70–80%) using 100 μL of reduced serum medium (Opti-MEM, Gibco, Thermo Fisher, Saint Louis, MO, USA) containing 150 ng of each selected pcDNA™3 construct, 1:10 charge ratio of Enhanced Green Fluorescent expressing construct (EGFP; positive control), and pBluescript II SK (+) vector DNA (Addgene, Watertown, MA, USA) up to 1 µg of totally transfected DNA. Following 24 h incubation, cells were washed with fresh standard medium and plated in polylysine treated plates for additional 24 h. Cells were then stimulated with L-AAs and sugar compounds for 18 h in a reduced assay medium (BME w/o L-glutamate; Gibco, Thermo Fisher, Saint Louis, MO, USA) + 1% FBS), to prevent unspecific Ca^2+/NFAT signaling activation and potential saT1R desensitization. All L-AAs and sugars used for in vitro experiments were obtained from Merck KGaA (Darmstadt, Germany)."}
{"compound": "O=C(O)[C@@H]1CCCN1", "note": "[Pro, Proline]", "T1R2a/R3 [MSD] maximum stimulation dose": "1,00 × 10^-1 M"}
{"compound": "C[C@@H](O)[C@H](N)C(=O)O", "note": "[Thr, Threonine]", "T1R2a/R3 [MSD] maximum stimulation dose": "1,00 × 10^-1 M"}
{"compound": "CC(C)C[C@H](N)C(=O)O", "note": "[Leu, Leucine]", "T1R2a/R3 [MSD] maximum stimulation dose": "1,00 × 10^-1 M"}
{"compound": "NCCCC[C@H](N)C(=O)O", "note": "[Lys, Lysine]", "T1R2a/R3 [MSD] maximum stimulation dose": "1,00 × 10^-3 M"}
{"compound": "N[C@@H](CC(=O)O)C(=O)O", "note": "[Asp, Aspartic acid]", "T1R2a/R3 [MSD] maximum stimulation dose": "1,00 × 10^-5 M"}
{"compound": "CSCC[C@H](N)C(=O)O", "note": "[Met, Methionine]", "T1R2a/R3 [MSD] maximum stimulation dose": "1,00 × 10^-1 M"}
{"compound": "N[C@@H](CO)C(=O)O", "note": "[Ser, Serine]", "T1R2a/R3 [MSD] maximum stimulation dose": "1,00 × 10^-1 M"}
{"compound": "CC[C@H](C)[C@H](N)C(=O)O", "note": "[Ile, Isoleucine]", "T1R2a/R3 [MSD] maximum stimulation dose": "1,00 × 10^-1 M"}
{"compound": "N[C@@H](Cc1c[nH]cn1)C(=O)O", "note": "[His, Histidine]", "T1R2a/R3 [MSD] maximum stimulation dose": "1,00 × 10^-5 M"}
{"compound": "N[C@@H](Cc1ccccc1)C(=O)O", "note": "[Phe, Phenylalanine]", "T1R2a/R3 [MSD] maximum stimulation dose": "1,00 × 10^-2 M"}
{"compound": "N[C@@H](CCC(=O)O)C(=O)O", "note": "[Glu, Glutamic acid]", "T1R2a/R3 [MSD] maximum stimulation dose": "1,00 × 10^-2 M"}
{"compound": "NCC(=O)O", "note": "[Gly, Glycine]", "T1R2a/R3 [MSD] maximum stimulation dose": "1,00 × 10^-1 M"}
{"compound": "N[C@@H](CS)C(=O)O", "note": "[Cys, Cysteine]", "T1R2a/R3 [MSD] maximum stimulation dose": "1,00 × 10^-4 M"}
{"compound": "CC(C)[C@H](N)C(=O)O", "note": "[Val, Valine]", "T1R2a/R3 [MSD] maximum stimulation dose": "1,00 × 10^-1 M"}
{"compound": "N[C@@H](Cc1ccc(O)cc1)C(=O)O", "note": "[Tyr, Tyrosine]", "T1R2a/R3 [MSD] maximum stimulation dose": "1,00 × 10^-3 M"}
{"compound": "NC(=O)C[C@H](N)C(=O)O", "note": "[Asn, Asparagine]", "T1R2a/R3 [MSD] maximum stimulation dose": "1,00 × 10^-1 M"}
{"compound": "N[C@@H](Cc1c[nH]c2ccccc12)C(=O)O", "note": "[Trp, Tryptophan]", "T1R2a/R3 [MSD] maximum stimulation dose": "1,00 × 10^-3 M"}
{"compound": "NC(=O)CC[C@H](N)C(=O)O", "note": "[Gln, Glutamine]", "T1R2a/R3 [MSD] maximum stimulation dose": "1,00 × 10^-1 M"}
{"compound": "C[C@H](N)C(=O)O", "note": "[Ala, Alanine]", "T1R2a/R3 [MSD] maximum stimulation dose": "1,00 × 10^-1 M"}
{"compound": "N=C(N)NCCC[C@H](N)C(=O)O", "note": "[Arg, Arginine]", "T1R2a/R3 [MSD] maximum stimulation dose": "1,00 × 10^-5 M"}
{"molecular_target": "T1, saT1R2a/R3", "experiment": "saT1R2a/R3 heterodimer transiently transfected in stable pGL3-NFAT-luc-HEK293 (Cl.3) cells, luciferase reporter", "format": "cell-based", "details": "saT1R2a/R3; tested 1–500 mM", "excerpt": "as §1, §2, §3", "units": {"concentration with significant activation": "mM"}}
{"compound": "OC[C@H]1OC(O)[C@H](O)[C@@H](O)[C@@H]1O", "note": "(stereo partly drawn) [D-Glucose]", "concentration with significant activation": 200}
